The record followed here is article PMC9490236, “Accurate de novo design of membrane-traversing macrocycles” (Cell, 2022).

The conditions of data set [1]: PAMPA. Background: The PAMPA barrier holds no transporters, so it reflects passive diffusion.
Data set [2] in a line: in vitro. Conditions: PAMPA, PAMPA_Papp_Avg.

Where a SMILES comes first, the peptide text is derived from it. [ ]: non-standard residue; d: D form. NMeF = CN[C@@H](Cc1ccccc1)C(=O)O; dNMeF = CN[C@H](Cc1ccccc1)C(=O)O; NMeL = CN[C@@H](CC(C)C)C(=O)O; dNMeL = CN[C@H](CC(C)C)C(=O)O; NMeV = CN[C@H](C(=O)O)C(C)C; NMeA = CN[C@@H](C)C(=O)O; dNMeA = CN[C@H](C)C(=O)O; Sar = CNCC(=O)O

One may read the Papp as a coefficient for how fast a substance crosses the barrier. Higher therefore signals fast passage. In data set [1], `CC(C)C[C@H]1NC(=O)[C@H](CC(C)C)N(C)C(=O)[C@@H](Cc2ccccc2)NC(=O)[C@@H](C)N(C)C(=O)[C@@H]2CCCN2C(=O)[C@H](C(C)C)NC(=O)[C@H](CC(C)C)N(C)C(=O)[C@@H](C)NC(=O)[C@@H]2CCCN2C(=O)[C@H]2CCCN2C1=O` [Design D10.32, PRO *DALA DPHE *LEU DLEU DPRO PRO DALA *LEU VAL] (cyclo([dA][NMeL]VP[dNMeA][dF][NMeL][dL][dP]P)) came in with a PAMPA_R1 of 2.87E-06 and a PAMPA_R3 of 2.80E-06. Further, the Papp in data set [2] amounted to 3.18 ×10⁻⁶ cm/s.
For the compound `CC(C)C[C@@H]1NC(=O)[C@H](C(C)C)NC(=O)[C@@H](CC(C)C)N(C)C(=O)[C@H](C)NC(=O)[C@@H](CC(C)C)N(C)C(=O)[C@@H]2CCCN2C(=O)[C@H]2CCCN2C(=O)[C@H](C)N(C)C(=O)[C@H]2CCCN2C(=O)[C@@H](CC(C)C)NC1=O` [Design D10.35, LEU DLEU DPRO *ALA DPRO PRO *DLEU ALA *DLEU VAL] (cyclo([dNMeL]A[dNMeL]VL[dL][dP][NMeA][dP]P)), in data set [1], the PAMPA_R1 came to 5.25E-07 and the PAMPA_R3 came out at 2.07E-07. The compound further showed a Papp in data set [2] of 0.279 ×10⁻⁶ cm/s.
On the same counts, the results for `CC[C@@H](C)[C@H]1NC(=O)[C@H](CC(C)C)N(C)C(=O)[C@H]2CCCN2C(=O)[C@H](CC(C)C)NC(=O)[C@@H](Cc2ccccc2)N(C)C(=O)[C@H](CC(C)C)N(C)C(=O)[C@@H](C(C)C)NC(=O)[C@H](C)NC(=O)[C@H]2CCCN2C(=O)[C@@H]2CCCN2C1=O` (single isomer, unassigned) [Design D10.60.p1, *LEU *DPHE LEU DPRO *LEU DILE PRO DPRO ALA DVAL] are 6.58E-07, 1.13E-06 and 0.65 ×10⁻⁶ cm/s.
In data set [1], `CC(C)C[C@@H]1NC(=O)[C@@H](CC(C)C)NC(=O)[C@@H](CC(C)C)N(C)C(=O)[C@@H](CC(C)C)N(C)C(=O)[C@H](C(C)C)NC(=O)[C@@H](C)N(C)C(=O)[C@@H]2CCCN2C(=O)[C@@H]2CCCN2C(=O)[C@@H](C)N(C)C1=O` [Design D9.19, PRO *DALA VAL *DLEU *DLEU DLEU LEU *DALA PRO] (cyclo(L[dNMeA]PP[dNMeA]V[dNMeL][dNMeL][dL])) yielded a PAMPA_R1 of 1.47E-06 and a PAMPA_R3 of 1.16E-06. This compound registered a Papp in data set [2] of 1.28 ×10⁻⁶ cm/s.
Regarding `CC(C)[C@@H]1NC(=O)[C@@H]2CCCN2C(=O)[C@@H]2CCCN2C(=O)[C@@H](Cc2ccccc2)NC(=O)[C@@H]2CCCN2C(=O)[C@@H](Cc2ccccc2)NC1=O` [Design D6.5, PRO PRO VAL DPHE PRO DPHE] (cyclo(PPV[dF]P[dF])), in data set [1], the PAMPA_R1 was 3.17e-06 cm/s and the PAMPA_R3 worked out at 3.12e-06 cm/s. The compound also had a Papp in data set [2] of 2.41 ×10⁻⁶ cm/s.
In data set [1], `CC(C)C[C@@H]1C(=O)N(C)[C@H](CC(C)C)C(=O)N[C@H](CC(C)C)C(=O)N[C@@H](C(C)C)C(=O)N2CCC[C@@H]2C(=O)N2CCC[C@H]2C(=O)N[C@H](CC(C)C)C(=O)N[C@@H](C(C)C)C(=O)N1C` [Design D8.23, DLEU VAL *DLEU *DLEU DLEU VAL DPRO PRO] (cyclo([dL]V[dNMeL][dNMeL][dL]V[dP]P)) returned a PAMPA_R1 of 1.18E-06 and a PAMPA_R3 of 1.40E-06. The Papp in data set [2] is 1.28 ×10⁻⁶ cm/s.
Regarding `CC(C)C[C@H]1NC(=O)[C@@H](C)NC(=O)[C@@H](C)NC(=O)[C@H]2CCCN2C(=O)[C@@H]2CCCN2C(=O)[C@H]2CCCN2C(=O)[C@@H](C)NC(=O)[C@@H](Cc2ccccc2)N(C)C(=O)[C@H]2CCCN2C(=O)[C@@H](CC(C)C)NC(=O)[C@@H](CC(C)C)NC1=O` [Design D11.25, DLEU DPRO *DPHE DALA DPRO PRO DPRO DALA DALA DLEU DLEU] (cyclo([dP][dA][dA][dL][dL][dL][dP][dNMeF][dA][dP]P)), in data set [1], the PAMPA_R1 is recorded as 3.92E-07 and the PAMPA_R3 is listed as 3.97E-07. Also, the Papp in data set [2] came out at 0.405 ×10⁻⁶ cm/s.
In data set [1], `CC[C@H](C)[C@@H]1NC(=O)[C@@H]2CCCN2C(=O)CN(C)C(=O)[C@@H](CC(C)C)NC(=O)[C@@H](CC(C)C)N(C)C(=O)[C@@H]2CCCN2C(=O)[C@H](Cc2ccccc2)N(C)C(=O)[C@@H](Cc2ccccc2)NC1=O` [Design D8.15, PRO ILE DPHE*PHE PRO *DLEU DLEU *GLY] (cyclo(I[dF][NMeF]P[dNMeL][dL][Sar]P)) registered a PAMPA_R1 of 8.94E-07 and a PAMPA_R3 of 9.27E-07. The same compound gave a Papp in data set [2] of 0.768 ×10⁻⁶ cm/s.
Turning to `CC[C@@H](C)[C@H]1NC(=O)[C@@H](Cc2ccccc2)N(C)C(=O)[C@@H]2CCCN2C(=O)[C@@H]([C@H](C)CC)NC(=O)[C@@H](Cc2ccccc2)N(C)C(=O)[C@@H]2CCCN2C1=O` [Design D6.2, DILE PRO *DPHE DILE PRO *DPHE] (cyclo(P[dNMeF][dI]P[dNMeF][dI])), in data set [1], the PAMPA_R1 came out at 1.72e-05 cm/s and the PAMPA_R3 was 1.15e-05 cm/s. The compound further gave a Papp in data set [2] of 12.1 ×10⁻⁶ cm/s.
On to `CC(C)C[C@@H]1C(=O)N[C@H](C(C)C)C(=O)N(C)[C@@H](C(C)C)C(=O)N2CCC[C@H]2C(=O)N2CCC[C@@H]2C(=O)N[C@@H](C)C(=O)N(C)[C@@H](Cc2ccccc2)C(=O)N(C)[C@H](CC(C)C)C(=O)N[C@H](C)C(=O)N1C` [Design D9.17, DPRO ALA *PHE *DLEU DALA *DLEU DVAL *VAL PRO] (cyclo(A[NMeF][dNMeL][dA][dNMeL][dV][NMeV]P[dP])), for which, in data set [1], the PAMPA_R1 worked out at 2.83E-06 and the PAMPA_R3 was found to be 4.13E-07. The Papp in data set [2] worked out at 1.74 ×10⁻⁶ cm/s.
On the same counts, the results for `CC(C)C[C@@H]1NC(=O)[C@@H](CC(C)C)N(C)C(=O)[C@@H]2CCCN2C(=O)[C@H](CC(C)C)N(C)C(=O)[C@@H](C)NC(=O)[C@@H](CC(C)C)N(C)C(=O)[C@@H]2CCCN2C(=O)CN(C)C(=O)[C@H](CC(C)C)N(C)C(=O)[C@H](Cc2ccccc2)NC1=O` [Design D10.57, *LEU *GLY PRO *DLEU DALA *LEU PRO *DLEU LEU PHE] (cyclo(F[NMeL][Sar]P[dNMeL][dA][NMeL]P[dNMeL]L)) are 2.94E-06, 3.42E-06 and 3.05 ×10⁻⁶ cm/s.
Regarding `CC[C@H](C)[C@@H]1NC(=O)[C@@H]2CCCN2C(=O)[C@H]2CCCN2C(=O)[C@@H](CC(C)C)NC(=O)[C@@H](CC(C)C)N(C)C(=O)[C@@H]2CCCN2C(=O)[C@H](Cc2ccccc2)N(C)C(=O)[C@@H](Cc2ccccc2)NC1=O` [Design D8.14, PRO ILE DPHE*PHE PRO *DLEU DLEU DPRO] (cyclo(I[dF][NMeF]P[dNMeL][dL][dP]P)), in data set [1], the PAMPA_R1 is recorded as 1.14E-06 and the PAMPA_R3 is 7.14E-07. The compound further yielded a Papp in data set [2] of 0.971 ×10⁻⁶ cm/s.
For `CC(C)C[C@@H]1NC(=O)[C@@H]2CCCN2C(=O)[C@H]2CCCN2C(=O)[C@H](CC(C)C)NC(=O)[C@H](C)N(C)C(=O)[C@H]2CCCN2C(=O)[C@@H](CC(C)C)NC1=O` [Design D7.6, DLEU DPRO *ALA LEU DPRO PRO LEU] (cyclo(L[dL][dP][NMeA]L[dP]P)), in data set [1], the PAMPA_R1 is 2.16e-06 cm/s and the PAMPA_R3 came to 6.12e-06 cm/s. In addition, in data set [2], the Papp was determined as 3.62 ×10⁻⁶ cm/s.
Turning to `CC[C@H](C)[C@@H]1NC(=O)[C@H]2CCCN2C(=O)[C@@H]2CCCN2C(=O)[C@H](CC(C)C)NC(=O)[C@@H](C(C)C)NC(=O)[C@@H](CC(C)C)N(C)C(=O)[C@@H]2CCCN2C1=O` [Design D7.1, PRO *DLEU DVAL LEU PRO DPRO ILE] (cyclo(IP[dNMeL][dV]LP[dP])), in data set [1], the PAMPA_R1 came out at 2.76e-06 cm/s and the PAMPA_R3 amounted to 3.53e-06 cm/s. The same compound yielded a Papp in data set [2] of 2.93 ×10⁻⁶ cm/s.
